Assay results from US11873298B2, “Compounds and uses thereof” (JANSSEN PHARMACEUTICA NV, priority 2017, dated 2024).

Columns and labels:
SCD5 = target: T1, SCD5 (Homo sapiens, UniProt Q86SK9); assay: Growth inhibition of humanized yeast strain expressing SCD5 as sole desaturase; assay type: cell-based
T1 construct: host or cells: S. cerevisiae ole1Δ strain (W303 pdr1Δ pdr3Δ background), plasmid pRS316 with TDH3 promoter and CYC1 terminator
T1 sequence (Q86SK9 1-330): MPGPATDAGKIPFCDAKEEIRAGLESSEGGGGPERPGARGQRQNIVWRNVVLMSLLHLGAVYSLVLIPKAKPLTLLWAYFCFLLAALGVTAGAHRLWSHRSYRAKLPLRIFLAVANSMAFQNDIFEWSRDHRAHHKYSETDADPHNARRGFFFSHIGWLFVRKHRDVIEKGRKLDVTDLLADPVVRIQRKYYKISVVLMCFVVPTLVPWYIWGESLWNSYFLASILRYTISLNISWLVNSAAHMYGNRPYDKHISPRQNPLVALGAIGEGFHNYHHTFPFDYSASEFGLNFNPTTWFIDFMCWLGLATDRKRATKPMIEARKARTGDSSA
In short: (§1)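 Measured by optical density at 600 nm, growth of desaturase-dependent yeast (OLE1 deleted; human SCD1, human SCD5 or yeast Ole1 supplied from plasmid) was scored after 24 h (Ole1) or 40 h (SCD1, SCD5) at 30° C. in galactose media lacking uracil with DMSO-delivered compound.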

SCD1 = target: T2, SCD1 (Homo sapiens, UniProt O00767); assay: Growth inhibition of humanized yeast strain expressing SCD1 as sole desaturase; assay type: cell-based
T2 construct: host or cells: S. cerevisiae ole1Δ strain (W303 pdr1Δ pdr3Δ background), plasmid pRS316 with TDH3 promoter and CYC1 terminator
T2 sequence (O00767 1-359): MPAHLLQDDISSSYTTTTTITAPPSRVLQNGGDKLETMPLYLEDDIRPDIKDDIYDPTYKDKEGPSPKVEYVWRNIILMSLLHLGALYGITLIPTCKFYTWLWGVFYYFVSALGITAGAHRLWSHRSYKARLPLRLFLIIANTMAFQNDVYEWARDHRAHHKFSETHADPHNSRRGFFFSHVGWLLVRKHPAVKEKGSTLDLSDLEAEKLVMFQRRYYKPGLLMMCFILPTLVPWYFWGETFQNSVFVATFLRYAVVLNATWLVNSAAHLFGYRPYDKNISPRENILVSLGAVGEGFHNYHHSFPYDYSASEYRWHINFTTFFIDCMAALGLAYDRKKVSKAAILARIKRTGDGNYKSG
In short: as §1

[1] = growth inhibition of humanized yeast strain expressing human SCD5
[2] = growth inhibition of humanized yeast strain expressing human SCD1

Question: With `CC1(OC(=O)N2CCC(c3noc(-c4ccc5cnn(C6CS(=O)(=O)C6)c5c4)n3)CC2)CC1` [Compound 1060] as the compound, how does the IC50 (SCD5; humanized yeast strain, 40 h) read?
Answer: The IC50 was 0.184 µM.

Question: And the IC50 (SCD1; humanized yeast strain, 40 h)?
Answer: Its IC50 is over 45 µM.

Question: For `CN(c1cc(-c2nc(N3CCN(C(=O)OC(C)(C)C)CC3)no2)ccn1)C1COC1` [Compound 1022], which IC50 (SCD5; humanized yeast strain, 40 h) is on record?
Answer: The IC50 was 0.01 µM.

Question: What about the IC50 (SCD1; humanized yeast strain, 40 h) of the same compound?
Answer: The IC50 was over 45 µM.

Question: How did the IC50 (SCD5; [1]) turn out when `CC(C)n1ncc2ccc(N3CC4(CCN(C(=O)OC(C)(C)C)CC4)OC3=O)cc21` [Compound 671] was run?
Answer: The IC50 was over 45 µM.

Question: What about the IC50 (SCD1; [2]) of the same compound?
Answer: The IC50 was over 45 µM.

Question: Which results are given for `O=C(OC1CC1)N1CCN(c2noc(-c3ccc4cnn(C5COC5)c4c3)n2)CC(F)(F)C1` [Compound 1083]?
Answer: IC50 (SCD5; humanized yeast strain, 40 h): 0.033 µM; IC50 (SCD1; humanized yeast strain, 40 h): > 45 µM

Question: How did the IC50 (SCD5; [1]) turn out when `CC(C)(C)CC(=O)N1CCC(c2nc(-c3ccc4cn[nH]c4c3)no2)CC1` [Compound 732] was run?
Answer: The IC50 was 31.8 µM.

Question: And the IC50 (SCD1; [2])?
Answer: Its IC50 is over 45 µM.

Question: How did the IC50 (SCD5; [1]) turn out when `CC(C)n1ncc2ccc(-c3noc(N4CCC(CO)CC4)n3)cc21` [Compound 637] was run?
Answer: Its IC50 is over 45 µM.

Question: What about the IC50 (SCD1; [2]) of the same compound?
Answer: The IC50 was over 45 µM.

Question: For `CNC(=O)Cn1ncc2ccc(-c3noc(C4CCN(C(=O)OC(C)(C)C)CC4)n3)cc21` [Compound 644], which IC50 (SCD5; [1]) is on record?
Answer: Its IC50 is over 45 µM.

Question: What about the IC50 (SCD1; [2]) of the same compound?
Answer: Its IC50 is over 45 µM.

Question: `CC(C)N1C(=O)Cc2ccc(-c3noc(C4CCN(C(=O)CC(C)(C)C)CC4)n3)cc21` [Compound 611] was tested. Which IC50 (SCD5; [1]) did it give?
Answer: Its IC50 is 7.48 µM.

Question: What about the IC50 (SCD1; [2]) of the same compound?
Answer: The IC50 was over 45 µM.

Question: Which IC50 (SCD5; humanized yeast strain, 40 h) does the source give for `O[C@H]1C[C@@H](n2ncc3ccc(-c4nc(N5CCn6c(Cl)cnc6C5)no4)cc32)C1` [Compound 958] here?
Answer: Its IC50 is 34.5 µM.

Question: And the IC50 (SCD1; humanized yeast strain, 40 h)?
Answer: Its IC50 is over 45 µM.

Question: For `COC1(C(=O)N2CCC(c3noc(-c4ccc5cnn(C(C)C)c5c4)n3)CC2)CC1` [Compound 799], which IC50 (SCD5; humanized yeast strain, 40 h) is on record?
Answer: The IC50 was 0.01 µM.

Question: What about the IC50 (SCD1; humanized yeast strain, 40 h) of the same compound?
Answer: The IC50 was over 45 µM.

Question: What does the source list for `CC(C)C(=O)N1CCC(c2noc(-c3ccnc(N(C)C4COC4)c3)n2)CC1` [Compound 1155]?
Answer: IC50 (SCD5; humanized yeast strain, 40 h): > 45 µM; IC50 (SCD1; humanized yeast strain, 40 h): > 45 µM

Question: Which IC50 (SCD5; humanized yeast strain, 40 h) does the source give for `COC(=O)N1CCC(c2noc(-c3ccnc(CC4CC4)c3)n2)CC1` [Compound 1081] here?
Answer: The IC50 was 2.43 µM.

Question: And the IC50 (SCD1; humanized yeast strain, 40 h)?
Answer: Its IC50 is over 45 µM.

Question: Which results are given for `CC(=O)N1CC(n2cc3ccc(-c4noc(C5CCN(C(=O)OC(C)(C)C)CC5)n4)cc3n2)C1` [Compound 711]?
Answer: IC50 (SCD5; [1]): > 45 µM; IC50 (SCD1; [2]): > 45 µM

Question: With `O=C(N1CCC(c2noc(-c3ccc4cnn(C5COC5)c4c3)n2)CC1)C1(O)CC1` [Compound 903] as the compound, how does the IC50 (SCD5; humanized yeast strain, 40 h) read?
Answer: Its IC50 is 0.01 µM.

Question: And the IC50 (SCD1; humanized yeast strain, 40 h)?
Answer: The IC50 was over 45 µM.

Question: Which results are given for `COC(=O)N1CCC(c2noc(-c3ccnc(OC4COC4)c3)n2)CC1` [Compound 1064]?
Answer: IC50 (SCD5; humanized yeast strain, 40 h): 3.44 µM; IC50 (SCD1; humanized yeast strain, 40 h): > 45 µM

Question: `CC(C)(C)OC(=O)N1C[C@@H]2[C@H](C1)[C@H]2C(=O)NCc1cccc(C#N)c1` [Compound 772] was tested. Which IC50 (SCD5; humanized yeast strain, 40 h) did it give?
Answer: The IC50 was over 45 µM.

Question: What about the IC50 (SCD1; humanized yeast strain, 40 h) of the same compound?
Answer: The IC50 was over 45 µM.

Question: Which IC50 (SCD5; humanized yeast strain, 40 h) does the source give for `COC(=O)N1CC2(C1)CN(c1noc(-c3ccc4cnn(C5COC5)c4c3)n1)C2` [Compound 1063] here?
Answer: Its IC50 is 3.44 µM.

Question: And the IC50 (SCD1; humanized yeast strain, 40 h)?
Answer: Its IC50 is over 45 µM.

Question: How did the IC50 (SCD5; humanized yeast strain, 40 h) turn out when `COC(=O)N1CC[C@H](c2noc(-c3ccc4cnn(C5COC5)c4c3)n2)C[C@H]1C` [Compound 1059] was run?
Answer: The IC50 was 0.00223 µM.

Question: And the IC50 (SCD1; humanized yeast strain, 40 h)?
Answer: The IC50 was over 45 µM.

Question: Which IC50 (SCD5; humanized yeast strain, 40 h) does the source give for `CC(C)(C)OC(=O)N1CCN(c2noc(-c3ccc4cnn(C5CS(=O)(=O)C5)c4c3)n2)CC1` [Compound 997] here?
Answer: The IC50 was 0.022 µM.

Question: What about the IC50 (SCD1; humanized yeast strain, 40 h) of the same compound?
Answer: The IC50 was over 45 µM.

Question: `CC(C)C(=O)N1CCC(c2noc(-c3ccnc(NC4COC4)c3)n2)CC1` [Compound 1153] was tested. Which IC50 (SCD5; humanized yeast strain, 40 h) did it give?
Answer: The IC50 was 0.84 µM.

Question: What about the IC50 (SCD1; humanized yeast strain, 40 h) of the same compound?
Answer: Its IC50 is 1.94 µM.

Question: Which results are given for `CC(C)(C)OC(=O)N1CC(c2nc(-c3ccc4cn(C5COC5)nc4c3)no2)C1` [Compound 708]?
Answer: IC50 (SCD5; [1]): > 45 µM; IC50 (SCD1; [2]): > 45 µM

Question: `Cc1nn(C)c2cc(-c3noc(C4CCN(CC5COC(=O)C5)CC4)n3)ccc12` (centres unmarked) [Compound 567] was tested. Which IC50 (SCD5; humanized yeast strain expressing SCD5) did it give?
Answer: The IC50 was over 45 µM.

Question: What about the IC50 (SCD1; humanized yeast strain expressing SCD1) of the same compound?
Answer: The IC50 was over 45 µM.

Question: What does the source list for `COC(=O)N1CCC(c2noc(-c3ccc4cnn(C5CS(=O)(=O)C5)c4c3)n2)CC1` [Compound 1000]?
Answer: IC50 (SCD5; humanized yeast strain, 40 h): 0.65 µM; IC50 (SCD1; humanized yeast strain, 40 h): > 45 µM

Question: How did the IC50 (SCD5; humanized yeast strain, 40 h) turn out when `CC1(OC(=O)N2CCC(c3nc(-c4cccc(C5CCOC5)c4)no3)CC2)CC1` (centres unmarked) [Compound 846] was run?
Answer: The IC50 was 0.04 µM.

Question: And the IC50 (SCD1; humanized yeast strain, 40 h)?
Answer: The IC50 was over 45 µM.

Question: Which results are given for `C[C@H]1C[C@H](c2noc(-c3ccc4cnn(C5COC5)c4c3)n2)CCN1C(=O)OC(C)(C)C` [Compound 1018]?
Answer: IC50 (SCD5; humanized yeast strain, 40 h): 0.01 µM; IC50 (SCD1; humanized yeast strain, 40 h): 20.3 µM

Question: How did the IC50 (SCD5; [1]) turn out when `CC(C)n1ncc2ccc(-c3noc(C4CCN(C(=O)CNC(=O)c5ccc(F)cc5)CC4(F)F)n3)cc21` (centres unmarked) [Compound 681] was run?
Answer: The IC50 was over 45 µM.

Question: And the IC50 (SCD1; [2])?
Answer: Its IC50 is over 45 µM.

Question: How did the IC50 (SCD5; [1]) turn out when `CNC(=O)Cn1cc2ccc(-c3noc(C4CCN(C(=O)OC(C)(C)C)CC4)n3)cc2n1` [Compound 678] was run?
Answer: Its IC50 is 3.87 µM.

Question: And the IC50 (SCD1; [2])?
Answer: The IC50 was over 45 µM.

Question: Which results are given for `CC(C)n1ncc2ccc(-c3nc(N4CCNCC4)no3)cc21` [Compound 798]?
Answer: IC50 (SCD5; humanized yeast strain, 40 h): > 45 µM; IC50 (SCD1; humanized yeast strain, 40 h): > 45 µM
